Article PMC6445171 (Journal of Enzyme Inhibition and Medicinal Chemistry, 2017)
≈ marks a conversion by molar mass, not a printed value. Read-outs that look alike come from different tables or passages of the source.

Experiments:
[1] = cited from earlier work
[2] = physchem; conditions: pH 7.4, aqueous buffer

## COCCOc1ccc(N2CCN(CCn3ncc4c3nc(N)n3nc(-c5ccco5)nc43)CC2)cc1 [Preladenant]
[1]; reference antagonist
  Solubility: 0.02 µM (≈ 0.0101 µg/mL)

## CCn1c(=O)c2c(nc(/C=C/c3ccc(OC)c(OC)c3)n2C)n(CC)c1=O [Istradefylline]
[1]; reference antagonists
  Solubility: 1.5 µM (≈ 0.577 µg/mL)

## Nc1ccc2oc(-c3ccco3)nc2c1 [Compound D1, 2-(Furan-2-yl)-1,3-benzoxazol-5-amine]
[2]
  Solubility: 28 µM (≈ 5.61 µg/mL)
